# According to patent US9346810B2, “Pyrrolopyrimidine compounds and uses thereof” (HUTCHISON MEDIPHARMA LIMITED, priority 2010, dated 2016):
# Read-outs that look alike come from different tables or passages of the source.
# Legend:
# Type in all cases: biochemical
# [1] = molecular target: Recombinant human JAK1 catalytic domain (Homo sapiens (Human), UniProt P23458); experiment: JAK1 kinase assay (Z'-LYTE, Tyr 6 Peptide)
# Protocol: (§1) JAK1/2/3 kinase assay are performed in vitro using Kit-Tyr 6 Peptide (Invitrogen, Cat. No. PV4122). TYK2 kinase assay are performed in vitro using Z′-LYTE™ Kinase Assay Kit-Tyr 3 Peptide (Invitrogen, Cat. No. PV3192). […] All compounds are initially tested at 8 different concentrations (1 μM down to 0.0003 μM) using a 1:3 serial dilution scheme.
# [2] = molecular target: Recombinant human JAK2 catalytic domain (Homo sapiens (Human), UniProt O60674); experiment: JAK2 kinase assay (Z'-LYTE, Tyr 6 Peptide); details: read-out: IC50 in JAK2 kinase assay
# Sequence of Recombinant human JAK2 catalytic domain (O60674 849-1124): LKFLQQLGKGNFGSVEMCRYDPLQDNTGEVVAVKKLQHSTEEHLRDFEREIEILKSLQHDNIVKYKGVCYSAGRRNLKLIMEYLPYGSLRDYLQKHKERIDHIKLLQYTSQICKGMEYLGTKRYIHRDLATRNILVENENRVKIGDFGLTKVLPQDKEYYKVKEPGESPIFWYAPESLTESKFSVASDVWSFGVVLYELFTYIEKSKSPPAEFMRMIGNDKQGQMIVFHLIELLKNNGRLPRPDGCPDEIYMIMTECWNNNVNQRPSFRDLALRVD
# Protocol: as §1
# [3] = molecular target: Recombinant human JAK3 catalytic domain (Homo sapiens (Human), UniProt P52333); experiment: JAK3 kinase assay (Z'-LYTE, Tyr 6 Peptide)
# Sequence of Recombinant human JAK3 catalytic domain (P52333 822-1111): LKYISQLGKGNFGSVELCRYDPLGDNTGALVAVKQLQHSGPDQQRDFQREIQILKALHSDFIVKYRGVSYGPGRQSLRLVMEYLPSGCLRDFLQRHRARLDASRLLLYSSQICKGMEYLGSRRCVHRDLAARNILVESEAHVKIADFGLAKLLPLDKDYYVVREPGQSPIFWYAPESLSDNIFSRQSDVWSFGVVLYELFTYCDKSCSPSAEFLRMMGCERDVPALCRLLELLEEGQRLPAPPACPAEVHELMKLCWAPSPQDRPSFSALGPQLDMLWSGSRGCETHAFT
# Protocol: as §1
# [4] = read-out: IC50 in JAK1 kinase assay
# [5] = read-out: IC50 in JAK3 kinase assay
# Sequence of Recombinant human JAK1 catalytic domain (P23458 875-1153): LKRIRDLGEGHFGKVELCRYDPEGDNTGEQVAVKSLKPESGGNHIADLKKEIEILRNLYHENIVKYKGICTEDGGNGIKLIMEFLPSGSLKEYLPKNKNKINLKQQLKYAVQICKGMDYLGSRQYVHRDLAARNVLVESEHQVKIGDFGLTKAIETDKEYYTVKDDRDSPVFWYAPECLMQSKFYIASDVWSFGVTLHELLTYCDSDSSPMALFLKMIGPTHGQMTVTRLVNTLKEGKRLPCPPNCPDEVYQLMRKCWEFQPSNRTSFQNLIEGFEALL
Compound,"IC50 [1, 4]",IC50 [2],"IC50 [3, 5]","IC50 ([1]; read-out: JAK1 (enzyme, IC50))","IC50 ([3]; read-out: JAK3 (enzyme, IC50))"
CN(C(=O)Nc1ccc(C(F)(F)F)cc1)[C@@H]1CCN(c2ncnc3[nH]ccc23)C1 [Compound 30],1 to 100 nM,100 to 1000 nM,–,–,–
CN(c1ccc(C#N)cc1)[C@@H]1CCN(c2ncnc3[nH]ccc23)C1 [Compound 104],1 to 100 nM,1 to 100 nM,100 to 1000 nM,–,–
CN(c1ccnc(C#N)c1)[C@@H]1CCN(c2ncnc3[nH]ccc23)C1 [Compound 121],1 to 100 nM,1 to 100 nM,1 to 100 nM,–,–
CN(c1ccc(S(=O)(=O)NC[C@H]2CCCO2)cn1)[C@@H]1CCN(c2ncnc3[nH]ccc23)C1 [Compound 241],1 to 100 nM,1 to 100 nM,–,–,–
CN(c1ccc(-c2nn[nH]n2)cc1F)[C@@H]1CCN(c2ncnc3[nH]ccc23)C1 [Compound 161],1 to 100 nM,1 to 100 nM,–,–,–
Cc1cc(N(C)[C@@H]2CCN(c3ncnc4[nH]ccc34)C2)ncc1[N+](=O)[O-] [Compound 77],1 to 100 nM,100 to 1000 nM,100 to 1000 nM,–,–
CN(c1ccc(NS(C)(=O)=O)cn1)[C@@H]1CCN(c2ncnc3[nH]ccc23)C1 [Compound 217],1 to 100 nM,100 to 1000 nM,–,–,–
CN(c1ccc(C(=O)Nc2nccs2)cn1)[C@@H]1CCN(c2ncnc3[nH]ccc23)C1 [Compound 199],–,–,–,14 nM,522 nM
CN(c1ccc(S(=O)(=O)N2CCOCC2)cn1)[C@@H]1CCN(c2ncnc3[nH]ccc23)C1 [Compound 252],1 to 100 nM,100 to 1000 nM,–,–,–
"CN(c1cc2cn[nH]c2cn1)[C@@H]1CCN(c2ncnc3[nH]ccc23)C1 [Compound 125, (R)—N-(1-(7H-pyrrolo[2,3-d]pyrimidin-4-yl)pyrrolidin-3-yl)-N-methyl-1H-pyrazolo[3,4-c]pyridin-5-amine]",1 to 100 nM,1 to 100 nM,–,–,–
CN(c1cc(F)c(C#N)c(F)c1)[C@@H]1CCN(c2ncnc3[nH]ccc23)C1 [Compound 106],1 to 100 nM,–,–,–,–
CN(c1ccc(Br)cn1)[C@@H]1CCN(c2ncnc3[nH]ccc23)C1 [Compound 68],1 to 100 nM,100 to 1000 nM,–,–,–
COc1cc2ncnc(N(C)[C@@H]3CCN(c4ncnc5[nH]ccc45)C3)c2cc1OC [Compound 86],1 to 100 nM,1 to 100 nM,100 to 1000 nM,–,–
CN(c1ccc(S(=O)(=O)N2CCNCC2)cn1)[C@@H]1CCN(c2ncnc3[nH]ccc23)C1 [Compound 251],1 to 100 nM,–,–,–,–
"CN(c1ccncn1)[C@@H]1CCN(c2ncnc3[nH]ccc23)C1 [Compound 154, (R)—N-(1-(7H-pyrrolo[2,3-d]pyrimidin-4-yl)pyrrolidin-3-yl)-N-methylpyrimidin-4-amine]",1 to 100 nM,100 to 1000 nM,–,–,–
N#Cc1ccc(N(CC2CC2)[C@@H]2CCN(c3ncnc4[nH]ccc34)C2)nc1 [Compound 124],1 to 100 nM,1 to 100 nM,–,–,–
CC(C)S(=O)(=O)Nc1ccc(N(C)[C@@H]2CCN(c3ncnc4[nH]ccc34)C2)nc1 [Compound 218],1 to 100 nM,100 to 1000 nM,–,–,–
CN(c1ccc(S(=O)(=O)NC2CC2)cn1)[C@@H]1CCN(c2ncnc3[nH]ccc23)C1 [Compound 236],1 to 100 nM,1 to 100 nM,1 to 100 nM,–,–
CNS(=O)(=O)c1ccc(N(C)[C@@H]2CCN(c3ncnc4[nH]ccc34)C2)nc1 [Compound 239],1 to 100 nM,100 to 1000 nM,–,–,–
CN(c1ccc(C(=O)NC[C@H](O)c2ccccc2)cc1F)[C@@H]1CCN(c2ncnc3[nH]ccc23)C1 [Compound 202],1 to 100 nM,1 to 100 nM,–,–,–

Compound,"IC50 [1, 4]",IC50 [2],"IC50 [3, 5]","IC50 ([1]; read-out: JAK1 (enzyme, IC50))","IC50 ([3]; read-out: JAK3 (enzyme, IC50))"
"CN(c1cccc(C#N)c1)[C@@H]1CCN(c2ncnc3[nH]ccc23)C1 [Compound 119, (R)-3-((1-(7H-pyrrolo[2,3-d]pyrimidin-4-yl)pyrrolidin-3-yl)(methyl)amino)benzonitrile]",1 to 100 nM,–,–,–,–
COc1nc(N(C)[C@@H]2CCN(c3ncnc4[nH]ccc34)C2)ccc1C#N [Compound 42],1 to 100 nM,1 to 100 nM,1 to 100 nM,–,–
"CN(C(=O)Nc1cccc(C#N)c1)[C@@H]1CCN(c2ncnc3[nH]ccc23)C1 [Compound 16, (R)-1-(1-(7H-pyrrolo[2,3-d]pyrimidin-4-yl)pyrrolidin-3-yl)-3-(3-cyanophenyl)-1-methylurea]",1 to 100 nM,100 to 1000 nM,–,–,–
CN(c1ccc(S(=O)(=O)NC2CCOCC2)cn1)[C@@H]1CCN(c2ncnc3[nH]ccc23)C1 [Compound 259],1 to 100 nM,100 to 1000 nM,–,–,–
CN(c1ccc(C(F)(F)F)cn1)[C@@H]1CCN(c2ncnc3[nH]ccc23)C1 [Compound 123],1 to 100 nM,1 to 100 nM,–,–,–
CN(c1ccc(S(=O)(=O)C(F)(F)F)cc1)[C@@H]1CCN(c2ncnc3[nH]ccc23)C1 [Compound 122],1 to 100 nM,1 to 100 nM,–,–,–
CN(c1ccc(S(=O)(=O)Nc2ccc(F)cc2)cn1)[C@@H]1CCN(c2ncnc3[nH]ccc23)C1 [Compound 253],1 to 100 nM,–,–,–,–
CN(c1ccc(Cl)cn1)[C@@H]1CCN(c2ncnc3[nH]ccc23)C1 [Compound 67],1 to 100 nM,1 to 100 nM,1 to 100 nM,–,–
CN(c1ccc(S(=O)(=O)NC2COC2)cn1)[C@@H]1CCN(c2ncnc3[nH]ccc23)C1 [Compound 242],1 to 100 nM,1 to 100 nM,–,–,–
CN(C(=O)CCc1c(Cl)cccc1Cl)[C@@H]1CCN(c2ncnc3[nH]ccc23)C1 [Compound 21],1 to 100 nM,–,–,–,–
CN(c1ccc(S(=O)(=O)NCCO)cn1)[C@@H]1CCN(c2ncnc3[nH]ccc23)C1 [Compound 243],1 to 100 nM,100 to 1000 nM,–,–,–
CN(c1ccc(S(=O)(=O)N2CCCC2)cn1)[C@@H]1CCN(c2ncnc3[nH]ccc23)C1 [Compound 247],1 to 100 nM,–,–,–,–
CN(c1ccc(S(=O)(=O)NC(C)(C)C)cn1)[C@@H]1CCN(c2ncnc3[nH]ccc23)C1 [Compound 238],1 to 100 nM,–,–,–,–
Cc1nc(N(C)[C@@H]2CCN(c3ncnc4[nH]ccc34)C2)ccc1C#N [Compound 155],1 to 100 nM,1 to 100 nM,–,–,–
COCCNS(=O)(=O)c1ccc(N(C)[C@@H]2CCN(c3ncnc4[nH]ccc34)C2)nc1 [Compound 237],1 to 100 nM,–,–,–,–
CN(c1ccc(S(=O)(=O)NC2CCC[C@@H]2O)cn1)[C@@H]1CCN(c2ncnc3[nH]ccc23)C1 (some centres unmarked) [Compound 246],1 to 100 nM,–,–,–,–
C#CCN(c1ccc(C#N)cn1)[C@@H]1CCN(c2ncnc3[nH]ccc23)C1 [Compound 128],1 to 100 nM,1 to 100 nM,–,–,–
"CN(c1ccc(-c2ccncc2)cn1)[C@@H]1CCN(c2ncnc3[nH]ccc23)C1 [Compound 144, (R)—N-(1-(7H-pyrrolo[2,3-d]pyrimidin-4-yl)pyrrolidin-3-yl)-N-methyl-3,4′-bipyridin-6-amine]",1 to 100 nM,–,–,–,–
CN(c1ccc(S(=O)(=O)NCc2ccc(F)cc2)cn1)[C@@H]1CCN(c2ncnc3[nH]ccc23)C1 [Compound 254],1 to 100 nM,–,–,–,–
